Entries after “also recorded” stand apart in the source; their conditions may differ.

What all share (format): in vivo
In assay [1] the test system is IFN-γ and IL-4 production. The assay is described as follows: IFN-γ and IL-4 levels in spleen and CLN, Balb/c mice. The protocol: It was directly investigated whether α-GalCer nasal vaccine adjuvant skews immune response into Th1 or Th2 immune response. To measure the secretions of cytokines, cells were obtained from spleen and cervical lymph node (CLN) a week after the final immunization. The cells ([…]) were cultured with 500 μg/ml of OVA for 4 days. The secretions of IFN-γ and IL-4 in the culture supernatant were measured by using the mouse IFN-γ and IL-4 OptELA set ELISA kit (BD Pharmigen) according to the manufacturer's instruction.
As described in Example 2, different amounts of αGalCer (0.125, 0.5, 2.0 μg) and OVA were intranasally administered to Balb/c mice (Charles River Laboratories, Oriet Co., Ltd., Korea), followed by measurement of the levels of IFN-γ and IL-4 in spleen and CLN.

Assay [2] relates to OVA-specific antibody responses. The assay is described as follows: OVA-specific antibody responses by ELISA after intranasal co-administration of OVA and αGalCer, C57BL/6 mice. How it is done: To investigate the activity of αGalCer as an adjuvant in mucosa, required amount of αGalCer and 100 μg of OVA or 100 μg of OVA alone was diluted with PBS, making 20 μl solution (10 μl/nostril), which was administered to C57BL/6 mice or Balb/c mice (Charles River Laboratories, Orient Co., Ltd., Korea) at 6-8 weeks three times at one-week intervals.
Six to eight-weeks-old […] mice (Charles River Laboratories, Orient Co., Ltd., Korea) were immunized with 100 μg of OVA alone or together with the indicated amounts of αGalCer (0.125, 0.5, 2.0 μg), diluted with PBS and made 20 μl (10 μl/nostril) solution, three times at one-week intervals.
A week after the final immunization, the mice were sacrificed. OVA-specific antibody responses were measured by ELISA. The nasal wash sample was obtained by washing the nasal passage with 100 μl of sterilized PBS (Yamamoto et al., J. Immunol., 161: 4115, 1998), and bronchoalveolar lavage fluid was also obtained by the same manner as described to prepare the lung wash (Chung et al., Immunobiology 206: 408, 2002).
OVA-specific IgG titers in the nasal wash and the lung wash were measured (Chung et al., Immunobiology 206: 408, 2002). To measure IgA, IgG1 and IgG2a titers, two-fold serially diluted samples were used. To determine IgA titer, horseradish-peroxidase-conjugated goat anti-mouse IgA (SIGMA, USA), peroxidase substrate and TMB (SIGMA, USA) were used and 0.5 N—HCL was added thereto to terminate color development. Then, OD450 was measured. To determine IgG, IgG1 and IgG2a titers, alkaline phosphatase-conjugated goat anti-mouse IgG, IgG1 and IgG2a (Southern Biotech, USA) and alkaline phosphatase substrate, p-nitrophenyl phosphate (SIGMA), were used.
To assess the immune bias towards Th1 or Th2 immune responses induced by α-GalCer nasal vaccine adjuvant indirectly, IgG isotypes in serum were determined and the ratios of IgG1 to IgG2a were calculated.
On the technique in general: An ELISA detects its analyte on a solid surface through an enzyme-linked reagent.

The test system of assay [3] is IFN-γ and IL-4 production. Description: IFN-γ and IL-4 production of spleen and CLN cells cultured with inactive PR8. The conditions noted are these: Balb/c mice; inactivated PR8 + αGalCer intranasal; cells cultured with inactive PR8 for 5 days. How it is done:
To examine the role of αGalCer as an adjuvant of a killed virus, influenza virus A/PR/8/34 (PR8), which was inactivated with formalin, was used as an antigen to examine the anti-virus immune response. Balb/c mice were immunized with indicated amounts (1 μg, 10 μg) of inactivated PR8 alone or together with αGalCer by the intranasal administration twice at two-week intervals. Two weeks after the final immunization, the mice were sacrificed and following experiments were performed.
The supernatants were obtained and the levels of IFN-γ and IL-4 therein were measured by the same manner as described in Example 2.

As to `CCCCCCCCCCCCCCCCCCCCCCCCCC(=O)N[C@@H](CO[C@H]1O[C@H](CO)[C@H](O)[C@H](O)[C@H]1O)[C@H](O)[C@H](O)CCCCCCCCCCCCCC` [αGalCer, alpha-galactosylceramide], in assay [1] (0.5 μg of αGalCer intranasally coadministered with OVA), the “IL-4 level in spleen, comparison of αGalCer doses” value is on record as “highest level of IL-4”. In assay [1] (all groups coimmunized with αGalCer (0.125, 0.5, 2.0 μg) and OVA), the “production of IFN-γ and IL-4 in spleen and CLN” value is given as “significant increase”. For the same molecule, in assay [1] (αGalCer dose series + OVA intranasal), the “level of mucosal IgA in the lung wash and production of IL-4 in CLN, relation to the amount of αGalCer” value was “inverse proportion”. For the same molecule, the “OVA-specific IgA responses in the nasal wash and the lung wash” value in assay [2] (2.0 μg αGalCer + 100 μg OVA intranasal, three times at one-week intervals, vs vehicle alone or OVA alone) is given as “significantly higher; also recorded: increased”. For the same molecule, in assay [2] (co-administration of αGalCer and OVA intranasal), the “OVA-specific Th2 type IgG1 and Th1 type IgG2a levels in serum” value is “remarkable increase; also recorded: increased”. Also, the “OVA-specific IgG in serum” value in assay [2] (αGalCer 0.125, 0.5, 2.0 μg + 100 μg OVA intranasal, vs vehicle alone or OVA alone) is “higher levels”. In addition, the “levels of Th1 cytokine IFN-γ and Th2 cytokine IL-4 in spleen and CLN” value in assay [3] is listed as “significantly increased”.

For the origin of these results see patent US20080317769A1, “Vaccine Composition Comprising Alpha-Galactosylceramide as an Adjuvant For Intranasal Administration” (priority 2005, published 2008).
